Laboratory results published in patent US20250170112A1, “ADENOSINE LIGANDS FOR THE TREATMENT OF NEUROLOGICAL DISORDERS” (Lucy Therapeutics, Inc., priority 2022, published 2025).
pEC50: −log10 of the molar value.

Experiments:
[1] = molecular target: T1, human A2B (Homo sapiens, UniProt P29275); experiment: cAMP HTRF assay for Gs coupled receptor, agonist test; format: cell-based; details: agonist activity; HEK293 cells expressing recombinant human A2B; read-out: A2BAR EC50
T1 construct: expressed in transfected cells; host or cells: HEK293
T1 sequence (P29275 1-332): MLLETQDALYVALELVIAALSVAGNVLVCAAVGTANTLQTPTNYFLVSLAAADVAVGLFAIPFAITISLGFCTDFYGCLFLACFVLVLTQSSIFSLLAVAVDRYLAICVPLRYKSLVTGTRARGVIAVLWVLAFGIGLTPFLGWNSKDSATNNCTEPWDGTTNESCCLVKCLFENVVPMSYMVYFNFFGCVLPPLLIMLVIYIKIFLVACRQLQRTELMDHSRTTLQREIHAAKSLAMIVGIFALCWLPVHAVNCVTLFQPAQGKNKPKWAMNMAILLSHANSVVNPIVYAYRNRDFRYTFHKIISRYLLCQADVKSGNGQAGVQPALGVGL
Outline: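 Recombinant cells were incubated 30 min at room temperature with increasing agonist concentrations. Lysis buffer with cAMP-d2 and anti-cAMP cryptate was added, with 1 h at room temperature before the HTRF fluorescence ratio was read. Reference compounds were run in parallel.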

[2] = molecular target: T2, human Adenosine A1 receptor (Homo sapiens, UniProt P30542); experiment: GTPγS scintillation proximity assay, agonist testing; format: biochemical; details: agonist activity; membrane extracts of CHO-K1 cells expressing recombinant human A1; read-out: A1AR EC50
T2 construct: host or cells: CHO-K1
T2 sequence (P30542 1-326): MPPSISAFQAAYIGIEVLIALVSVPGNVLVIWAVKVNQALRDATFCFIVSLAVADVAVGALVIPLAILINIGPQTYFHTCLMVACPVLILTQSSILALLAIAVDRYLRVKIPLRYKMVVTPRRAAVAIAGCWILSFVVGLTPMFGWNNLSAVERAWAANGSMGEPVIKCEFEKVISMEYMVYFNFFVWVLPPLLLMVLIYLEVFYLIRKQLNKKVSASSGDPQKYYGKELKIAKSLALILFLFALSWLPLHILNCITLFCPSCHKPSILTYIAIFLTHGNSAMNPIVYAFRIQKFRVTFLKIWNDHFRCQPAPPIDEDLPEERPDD
Outline: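 Agonist-stimulated [35S]GTPγS binding to membranes of CHO-K1 cells expressing recombinant human A1 receptor, in 20 mM HEPES pH 7.4, 100 mM NaCl, 10 μg/mL saponin, with receptor-optimized MgCl2 and GDP. GTPγ[35S] 0.1 nM final with WGA SPA beads; 1 h at room temperature, then scintillation counting.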

Row | pEC50 [1] | pEC50 [2] | SMILES
1 | 6.83 | 6.24 | N#Cc1c(N)nc(SCC2CCCO2)c(C#N)c1-c1ccc(OCCO)cc1 (stereo not shown) [Compound 141]
2 | < 5.00 | 7.49 | CN(C)c1nc(SCC2COC2)c(C#N)c(-c2ccc(OC3COC3)cc2)c1C#N [Compound 222]
3 | 5.42 | < 5.00 | N#Cc1c(N)nc(SCCC2CCO2)c(C#N)c1-c1ccc(OCCO)cc1 (stereo not shown) [Compound 10]
4 | 5.53 | 7.04 | N#Cc1c(SCC2COC2)nc(N2CCC2)c(C#N)c1-c1ccc(OCCO)cc1 [Compound 63, 2-(Azetidin-1-yl)-4-[4-(2-hydroxyethoxy)phenyl]-6-(oxetan-3-ylmethylsulfanyl)pyridine-3,5-dicarbonitrile]
5 | < 5.00 | < 5.00 | CN(C)c1nc(SCc2cccnc2)c(C#N)c(-c2ccc(OCCOC(F)F)cc2)c1C#N [Compound 253]
6 | 5.37 | < 5.00 | COCCOc1ccc(-c2c(C#N)c(N)nc(SCC(=O)O)c2C#N)cc1 [Compound 68]
7 | 7.96 | < 5.00 | N#Cc1c(N)nc(SCc2nccc3[nH]ccc23)c(C#N)c1-c1ccc(OCCO)cc1 [Compound 229]
8 | < 5.00 | 6.09 | N#Cc1c(OCC2COC2)nc(N2CCC2)c(C#N)c1-c1ccc(OC2COC2)cc1 [Compound 287, 2-(azetidin-1-yl)-6-(oxetan-3-ylmethoxy)-4-(4-(oxetan-3-yloxy)phenyl)pyridine-3,5-dicarbonitrile]
9 | 5.71 | 5.48 | N#Cc1c(N)nc(SCc2cnccn2)c(C#N)c1-c1ccc(OCCOC(F)F)cc1 [Compound 235]
10 | < 5.00 | 6.32 | COCCOc1ccc(-c2c(C#N)c(SCc3cccnn3)nc(N3CCC3)c2C#N)cc1 [Compound 12]
11 | < 5.00 | < 5.00 | COCCOc1ccc(-c2c(C#N)c(N)nc(S[C@@H](C)c3ccccn3)c2C#N)cc1 [Compound 244]
12 | 6.51 | 7.66 | N#Cc1c(SCc2cccnc2)nc(N2CC(F)(F)C2)c(C#N)c1-c1ccc(OC2COC2)cc1 [Compound 272]
13 | 8.28 | 7.03 | CC(O)COc1ccc(-c2c(C#N)c(SCc3cccnc3)nc(N3CCCC3)c2C#N)cc1 (stereo not shown) [Compound 52]
14 | < 5.00 | 6.02 | CC(Sc1nc(N)c(C#N)c(-c2ccc(OC3COC3)cc2)c1C#N)C1COC1 (stereo not shown) [Compound 285]
15 | 7.74 | 8.12 | N#Cc1c(SCc2cccnc2)nc(N2CCCC2)c(C#N)c1-c1ccc(OCCO)cc1 [Compound 114]
16 | < 5.00 | 8.28 | CNc1nc(SCC2COC2)c(C#N)c(-c2ccc(OC3COC3)cc2)c1C#N [Compound 230]
17 | < 5.00 | 6.69 | N#Cc1c(N)nc(OCC2COC2)c(C#N)c1-c1ccc(OC2COC2)cc1 [Compound 312, 2-Amino-6-(oxetan-3-ylmethoxy)-4-(4-(oxetan-3-yloxy)phenyl)pyridine-3,5-dicarbonitrile]
18 | < 5.00 | 6.08 | COc1nc(SCC2COC2)c(C#N)c(-c2ccc(OCCO)cc2)c1C#N [Compound 281]
19 | 5.23 | 7.00 | CCOCCSc1nc(N)c(C#N)c(-c2ccc(OC3COC3)cc2)c1C#N [Compound 17]
20 | 9.55 | < 5.00 | N#Cc1c(N)nc(SCc2cncc3[nH]ccc23)c(C#N)c1-c1ccc(OCCO)cc1 [Compound 2]
21 | < 5.00 | < 5.00 | COCC(F)(F)Oc1ccc(-c2c(C#N)c(N)nc(SCC3COC3)c2C#N)cc1 [Compound 310]
22 | 6.68 | 6.33 | Cc1ccc(CSc2nc(N3CCCC3)c(C#N)c(-c3ccc(OCCO)cc3)c2C#N)cn1 [Compound 70]
23 | < 5.00 | 6.21 | COCCOc1ccc(-c2c(C#N)c(SCC3COC3)nc(N3CC(F)(F)C3)c2C#N)cc1 [Compound 269]
24 | < 5.00 | 7.31 | COCCOc1ccc(-c2c(C#N)c(N)nc(OCc3cccnc3)c2C#N)cc1 [Compound 193]
25 | 8.09 | 7.46 | N#Cc1c(SCc2cccnc2)nc(C2CC2)c(C#N)c1-c1ccc(OCCO)cc1 [Compound 45, 2-Cyclopropyl-4-[4-(2-hydroxyethoxy)phenyl]-6-(3-pyridylmethylsulfanyl)-pyridine-3,5-dicarbonitrile]
26 | < 5.00 | < 5.00 | N#Cc1c(SCc2cccnc2)nc(N2CCCC2)c(C#N)c1-c1ccc(OC(F)(F)CO)cc1 [Compound 263]
27 | < 5.00 | 6.05 | N#Cc1c(N)nc(SC2CCOCC2)c(C#N)c1-c1ccc(OCCO)cc1 [Compound 32]

Row | pEC50 [1] | pEC50 [2] | SMILES
28 | 6.40 | 8.82 | N#Cc1c(N)nc(SCC2COC2)c(C#N)c1-c1ccc(OCCO)cc1 [Compound 319]
29 | < 5.00 | 7.28 | N#Cc1c(N)nc(SCC2CCOC2)c(C#N)c1-c1ccc(OCCO)cc1 (stereo not shown) [Compound 28]
30 | < 5.00 | 8.82 | COCCOc1ccc(-c2c(C#N)c(N)nc(SCc3ccncn3)c2C#N)cc1 [Compound 232]
31 | 8.41 | 7.92 | N#Cc1c(N)nc(SCc2cnccn2)c(C#N)c1-c1ccc(OCCO)cc1 [Compound 172]
32 | < 5.00 | 5.96 | N#Cc1c(N)nc(SCC2COCOC2)c(C#N)c1-c1ccc(OC2COC2)cc1 [Compound 297]
33 | < 5.00 | 5.45 | COCCOc1ccc(-c2c(C#N)c(SCc3cnccn3)nc(N3CCC3)c2C#N)cc1 [Compound 21]
34 | < 5.00 | 6.64 | N#Cc1c(N)nc(OCC2CCOCC2)c(C#N)c1-c1ccc(OC2COC2)cc1 [Compound 298]
35 | < 5.00 | 7.14 | N#Cc1c(SCC2COC2)nc(N2CCC2)c(C#N)c1-c1ccc(OC2COC2)cc1 [Compound 293]
36 | < 5.00 | 6.30 | CC(O)CSc1nc(N2CCCC2)c(C#N)c(-c2ccc(OCCO)cc2)c1C#N (stereo not shown) [Compound 106]
37 | 5.07 | 7.26 | COCCOc1ccc(-c2c(C#N)c(N)nc(SCCOC)c2C#N)cc1 [Compound 147]
38 | < 5.00 | 8.92 | COCCOc1ccc(-c2c(C#N)c(N)nc(S[C@@H](C)c3cccnc3)c2C#N)cc1 [Compound 247]
39 | < 5.00 | < 5.00 | COCCOc1ccc(-c2c(C#N)c(N)nc(Sc3cccnc3)c2C#N)cc1 [Compound 246]
40 | < 5.00 | 7.04 | COCCOc1ccc(-c2c(C#N)c(N)nc(SCC(C)O)c2C#N)cc1 (stereo not shown) [Compound 127]
41 | < 5.00 | 7.09 | N#Cc1c(N)nc(SCC2(O)COC2)c(C#N)c1-c1ccc(OC2COC2)cc1 [Compound 315]
42 | < 5.00 | 7.66 | CC1(CSc2nc(N)c(C#N)c(-c3ccc(OC4COC4)cc3)c2C#N)COC1 [Compound 327]
43 | < 5.00 | 6.06 | COCCOc1ccc(-c2c(C#N)c(C)nc(N)c2C#N)cc1 [Compound 39, 2-Amino-4-[4-(2-methoxyethoxy)phenyl]-6-methyl-pyridine-3,5-dicarbonitrile]
44 | < 5.00 | < 5.00 | N#Cc1c(N)nc(SCC2CCOC2)c(C#N)c1-c1ccc(OC2CCCOC2)cc1 (stereo not shown) [Compound 326]
45 | < 5.00 | 7.11 | COCCOc1ccc(-c2c(C#N)c(SCC3COC3)nc(N3CC(F)C3)c2C#N)cc1 [Compound 267]
46 | 5.36 | < 5.00 | Cc1ncccc1CSc1nc(N2CCCC2)c(C#N)c(-c2ccc(OCCO)cc2)c1C#N [Compound 76]
47 | 7.09 | 7.53 | N#Cc1c(N)nc(SCc2ccnc3[nH]ccc23)c(C#N)c1-c1ccc(OCCO)cc1 [Compound 14]
48 | 6.36 | < 5.00 | N#Cc1c(SCc2cccnc2)nc(N2CC(F)C2)c(C#N)c1-c1ccc(OC(F)(F)CO)cc1 [Compound 255]
49 | < 5.00 | < 5.00 | COCCOc1ccc(-c2c(C#N)c(SCc3cccnn3)nc(C3CC3)c2C#N)cc1 [Compound 233]
50 | 6.52 | 7.16 | N#Cc1cnc(SCc2cccnc2)c(C#N)c1-c1ccc(OC2COC2)cc1 [Compound 18]
51 | 7.03 | 6.53 | CC(C)(O)COc1ccc(-c2c(C#N)c(SCc3cccnc3)nc(N3CCCC3)c2C#N)cc1 [Compound 50]
52 | 6.97 | 6.13 | N#Cc1c(N)nc(SCc2n[nH]c3ccccc23)c(C#N)c1-c1ccc(OCCO)cc1 [Compound 207]
53 | < 5.00 | 5.97 | N#Cc1c(SCc2cccnc2)nc(N2CC(F)C2)c(C#N)c1-c1ccc(OCCOC(F)F)cc1 [Compound 266]
